# Source: US10500222B2, “Compositions and methods relating to treatment of infection” (Wayne State University, priority 2015, dated 2019)
# Entries after “also recorded” stand apart in the source; their conditions may differ.
# Experiments:
# P. aeruginosa ATCC 19660 = test: Bacterial growth and Minimum Inhibitory Concentration (MIC), strain 19660; format: cell-based, Pseudomonas aeruginosa; settings: for absorbance values of bacterial cultures: vs growth control
# [1] = test system: P. aeruginosa KEI 1025 infected cornea; test: Histopathology of eyes infected with KEI 1025; format: in vivo, C57BL/6 (B6) mice; settings: vs PBS
# Protocol: (§1) The left eyes of B6 mice (n=5/group/time) were injected with 5 μl of 2 μg/μl glycyrrhizin (GLY) (Sigma-Aldrich, St. Louis, Mo.) or PBS (control) subconjunctivally, one day before infection. Similar treatment was done using carbenoxolone (CBX) (Sigma-Aldrich, St. Louis, Mo.). All mice were injected intraperitoneally (IP) at 1 and 3 days p.i. with 100 μl of GLY (2 μg/μl) or CBX (1 μg/μl). PBS served as control for all these experiments. In a separate similar experiment mice were treated one day before infection with GLY subconjunctivally and injected intraperitoneally (i.p.) with GLY plus recombinant (r) HMGB1 (1 μg/100 μl) or GLY plus PBS. IP injections were similarly given at 1 and 3 days p.i. In an additional experiment, KEI 1025 infected B6 mice were treated with 5 μl of 2 μg/μl GLY subconjunctivally at 6 hours p.i. and injected intraperitoneally at 1 and 3 days p.i. with 100 μl of GLY (2 μg/μl).
# Whole eyes infected with KEI 1025 (n=3/group/time) were enucleated from GLY or PBS treated B6 mice at 3 and 5 days p.i. Eyes were immersed in PBS, rinsed, and fixed in 1% osmium tetroxide, 2.5% glutaraldehyde, and 0.2 M Sorenson's phosphate buffer (pH 7.4) (1:1:1) at 4° C. for 3 h. Eyes were rinsed with 0.1 M phosphate buffer, dehydrated in graded ethanols and propylene oxide, and then infiltrated and embedded in Epon-araldite. Thick sections (1.5 μm) were cut, stained with Richardson's stain, observed, and photographed (Leica DM4000B, Leica Microsystems, Inc.).
# The left eyes of B6 mice (n=5/group/time) were infected as above with Pseudomonas KEI 1025 strain. These infected B6 mice were treated by topical administration of GLY. Pseudomonas aeruginosa infected left cornea received 5 μL of GLY (20 μg/μL) topically beginning 6 (or 8) hours post infection and continued 2× daily for days 1-4 post infection.
# [2] = test system: mRNA levels in P. aeruginosa ATCC strain 19660 infected cornea; test: Real time RT-PCR of cornea, strain 19660 infection; format: in vivo, C57BL/6 (B6) mice; settings: vs PBS
# Protocol: as §1
# (§2) KEI 1025 or ATCC strain 19660 infected GLY or PBS treated mice were sacrificed at 5 days p.i. and the normal, contralateral (uninfected) and infected cornea was harvested. For each cornea, total RNA was isolated (RNA STAT-60™; Tel-Test, Friendswood, Tex.) according to the manufacturer's instructions. Upon spectrophotometric quantification at 260 nm, 1 μg of each RNA sample was reverse transcribed using Moloney-murine leukemia virus (M-MLV) reverse transcriptase (Invitrogen, Carlsbad, Calif.) to produce a cDNA template for the PCR reaction. cDNA products were diluted 1:25 with diethylpyrocarbonate (DEPC)-treated water. A 2 μl aliquot of diluted cDNA was used for the real-time RT-PCR reaction with Real-Time SYBR® Green/Fluorescein PCR Master Mix (Bio-Rad) and primer concentrations of 10 μM (total 10 μl reaction volume). After a pre-programmed hot start cycle (3 min at 95° C.), the parameters used for PCR amplification were: 15 sec at 95° C. and 60 sec at 60° C. with the cycles repeated 45 times. Optimal conditions for PCR amplification of cDNA were established using routine methods. mRNA levels of HMGB1, RAGE, IL-1β, TLR2, TLR4, CXCL2, TNF-α, NLR family pyrin domain containing 3 (NLRP3), NLR family CARD domain containing 4 (NLRC4), IL-12, TGF-β, IL-10, single Ig IL-1-related receptor (SIGIRR) and interleukin 1 receptor-like 1 (ST2) were tested by real-time RT-PCR (CFX Connect™ Real-Time PCR Detection System; Bio-Rad, Richmond, Calif.). The fold differences in gene expression were calculated after normalization to β-actin and expressed as the relative mRNA concentration+SEM.
# [3] = test system: mRNA levels in P. aeruginosa KEI 1025 infected cornea; test: Real time RT-PCR of cornea, KEI 1025 infection; format: in vivo, C57BL/6 (B6) mice
# Protocol: as §1, §2
# [4] = test system: P. aeruginosa ATCC strain 19660; test: Quantification of viable bacteria (plate count), strain 19660 infection; format: in vivo, C57BL/6 (B6) mice; settings: vs PBS
# Protocol: as §1
# Mice were sacrificed at 3 and 5 days p.i. and KEI 1025 or ATCC strain 19660 infected corneas from GLY, CBX or PBS (or GLY+/−rHMGB1) treated B6 mice were harvested (n=5/group/time). Each cornea was homogenized in 1 ml of sterile saline (0.85% NaCl, pH 7.4) containing 0.25% BSA. A 100 μl of the corneal homogenate was serially diluted (1:10) in sterile saline containing 0.25% BSA. […] Plates were incubated overnight at 37° C. and viable bacteria manually counted. […]
# [5] = KEI 1025, pretreatment subconj. + IP, infected cornea 5 days p.i., vs PBS
smiles,measurement,setting,value
"CC1(C)[C@@H](O[C@H]2O[C@H](C(=O)O)[C@@H](O)[C@H](O)[C@H]2O[C@@H]2O[C@H](C(=O)O)[C@@H](O)[C@H](O)[C@H]2O)CC[C@]2(C)[C@H]3C(=O)C=C4[C@@H]5C[C@@](C)(C(=O)O)CC[C@]5(C)CC[C@@]4(C)[C@]3(C)CC[C@@H]12 [GLY, glycyrrhizin]",MIC50,"P. aeruginosa ATCC 19660; Pseudomonas aeruginosa, ATCC19660, strain 19660, 50% decrease in absorbance at 540 nm, 37° C., 18 h",20 mg/mL
same,MIC90,"P. aeruginosa ATCC 19660; Pseudomonas aeruginosa, ATCC19660, strain 19660, 90% decrease in absorbance at 540 nm, 37° C., 18 h",40 mg/mL
same,Minimum Inhibitory Concentration 50 (MIC50),P. aeruginosa ATCC 19660; cytotoxic strains,20 milligrams/milliliter
same,absorbance values of bacterial cultures,"P. aeruginosa ATCC 19660; strain 19660, grown with 10 mg/ml GLY",significantly reduced
same,absorbance values of bacterial cultures,"P. aeruginosa ATCC 19660; strain 19660, grown with 20 mg/ml GLY",significantly reduced
same,absorbance values of bacterial cultures,"P. aeruginosa ATCC 19660; strain 19660, grown with 40 mg/ml GLY",significantly reduced
same,"histopathology: cellular infiltrate, corneal destruction","[1]; pretreatment subconj. + IP, 3 days p.i.",markedly reduced cellular infiltrate; also recorded: reduced corneal destruction and infiltrate
same,"histopathology: cellular infiltrate, damage to the cornea","[1]; pretreatment subconj. + IP, 5 days p.i.",markedly reduced cellular infiltrate; also recorded: reduced damage to the cornea and a decreased cellular infiltrate
same,"histopathology: damage to the cornea, cellular infiltrate","[1]; topical GLY from 6 hours p.i. and days 1-4 twice each day, 5 days p.i.",reduced damage to the cornea and a decreased cellular infiltrate
same,mRNA levels of CXCL2,"[2]; strain 19660, 5 days p.i.","slightly, but not significantly decreased"
same,Relative mRNA levels for HMGB1,"[2]; strain 19660, infected cornea 5 days p.i.",no different
same,CXCL2 mRNA,"[2]; strain 19660 experiment, normal cornea",No differences
same,Relative mRNA levels for HMGB1,"[2]; strain 19660 experiment, uninfected, normal cornea",no different
same,CXCL2 mRNA levels,[3]; [5],reduced
same,HMGB1 mRNA levels,[3]; [5],significantly reduced; also recorded: significantly decreased
same,IL-1β mRNA levels,[3]; [5],significantly reduced
same,IL-10 mRNA levels,[3]; [5],reduced
same,IL-12 mRNA levels,[3]; [5],only GLY reduced
same,NLRC4 mRNA levels,[3]; [5],only GLY reduced
same,NLRP3 mRNA levels,[3]; [5],reduced
same,RAGE mRNA levels,[3]; [5],reduced RAGE mRNA levels (FIG. 2B) when compared with PBS but not significantly
same,ST2 mRNA levels,[3]; [5],reduced
same,TGF-β mRNA levels,[3]; [5],reduced
same,TLR2 mRNA levels,[3]; [5],significantly reduced
same,TLR4 mRNA,[3]; [5],reduced
same,TNF-α mRNA levels,[3]; [5],"reduced by both GLY and CBX, but only GLY (p<0.01) was significant"
same,mRNA levels of the other molecules tested,"[3]; normal (uninfected) corneas, among PBS, CBX, GLY groups",no differences
same,RAGE mRNA levels,"[3]; normal (uninfected) corneas, vs PBS",significantly reduced
same,bacterial load (plate count),[4]; 3 days p.i.,significantly reduced
same,bacterial load (plate count),[4]; 5 days p.i.,significantly reduced
